Measurements as given in patent US20190117586A1, “METHODS OF PREVENTING OR TREATING PARKINSON'S DISEASE BY THE FARNESYLATION OF PARIS” (The Johns Hopkins University, priority 2016, published 2019).

Experiments:
PGC-1α target genes = test: mRNA of PGC-1α target genes in SH-SY5Y cells by real-time qRT-PCR; assay type: cell-based
Description: The 9 compounds that activate the PGC-1α promoter in the presence of PARIS were evaluated to determine which compounds induce PGC-1α levels in SH-SY5Y cells (FIGS. 2A and 2B). […] The mRNA level of PGC-1α target genes including copper/zinc superoxide dismutase (SOD1), manganese SOD (SOD2), glutathione peroxidase (GPx1), catalase (CAT), nuclear respiratory factor-1 (NRF-1), mitochondrial transcription factor A (TFAM), mitochondrial uncoupling proteins (UCP2 and UCP3), and the oxidative phosphorylation regulators, ATP5b, cytochrome C (CytC) and cytochrome C oxidase (COX II and IV) were determined by real-time quantitative RT-PCR (qRT-PCR) (FIG. 2C).

PGC-1α [1] = test: Parkin knockdown (lentiviral shRNA-parkin) SH-SY5Y cells; assay type: cell-based
Description: Knockdown of parkin leads to a 2.7 fold increase in the level of PARIS and a 65% decrease of PGC-1α (FIGS. 2D and 2E). […] The mRNA levels of PGC-1α and its target genes were assessed after knocking down parkin by real-time qRT-PCR.

[2] = Farnesol concentration in brain and plasma of farnesol diet fed mice by mass spectrometry; assay type: in vivo; conditions: 0.5% w/w trans-farnesol in AIN-76A diet; for concentration at 7 days: mouse, oral, 0.5 % w/w in diet
PGC-1α [3] = test: PGC-1α level in brain regions of farnesol-fed mice; assay type: in vivo; conditions: farnesol-fed mice versus normal mouse chow
Description: (§1) Farnesol is a natural organic compound in both plants and animals. Phosphate derivatives of farnesol are the building blocks of cholesterol in mammalian cells. […] The level of PGC-1α was measured from different brain regions in farnesol-fed mice. PGC-1α levels increase 2.7-fold in the olfactory bulb (OB), 1.6-fold in hippocampus (HIP), and 1.7-fold in substantia nigra (SN) as compared to that of mice on normal mouse chow (FIGS. 2H and 2I). […] In addition, mRNA levels of PGC-1α and a variety of PGC-1α's target genes in the STR, HIP, and SN of farnesol-fed mice were measured.

[4] = tested on: PGC-1α and PGC-1α's target genes; test: mRNA of PGC-1α and target genes in STR, HIP and SN of farnesol-fed mice; assay type: in vivo
Description: as §1

PGC-1α and NRF-1 = test: shRNA knockdown of PARIS in SH-SY5Y cells; assay type: cell-based
PPARα and PPARγ [5] = test: PPARα and PPARγ levels, target genes and PPAR responsive element in SH-SY5Y cells; assay type: cell-based
PPARα and PPARγ [6] = test: PPARα and PPARγ levels and target gene mRNA in farnesol fed mice; assay type: in vivo
PARIS = test: Subcellular fractionation of PARIS by immunoblot; assay type: cell-based
Description: To confirm that farnesylation of PARIS requires FTase, siRNA-FTase α knockdown or FTI-277 inhibition of FTase in the setting of PARIS overexpression was performed (FIG. 4C). […] To ascertain whether the farnesylation of PARIS affects the DNA binding activity of PARIS on the IRS motif of the PGC-1α promoter, a chromatin immunoprecipitation assay (ChIP) was performed from SH-SY5Y transfected with GFP-tagged PARIS WT or GFP-tagged PARIS C631S. […] To examine the possibility that the farnesylation of PARIS alters its subcellular distribution, subcellular fractionation was used to monitor the levels of PARIS in cytosolic, membrane, soluble nuclear, and chromatin-bound nuclear fractions by immunoblot analysis (FIG. 4F).

[7] = tested on: AAV-PARIS injected C57BL/6J mice; assay type: in vivo
α-syn PFF-injected mice = α-syn PFF-injected mice (WT and C638S KI); assay type: in vivo; conditions: farnesol diet from 2 weeks post-injection; WT versus C638S KI
Source text: Specifically, FIG. 16A illustrates generating Zfp746^C638S/C638S knockin mice (C638S KI) by CRISPR/Cas9. […] WB, western blot analysis. (FIG. 16B). […] (FIG. 16C). […] Stereological TH, Nissl-positive neuronal counting was indicated at the bottom, n=4 mice per group. (FIG. 16 D). […] WT, n=8, 9, 10, and 9 mice for each group; C638S KI, n=8, 10, 9, and 9 mice for each group. (FIG. 16 D). […] WT, n=8, 9, 10, and 9 mice for each group; C638S KI, n=9, 10, 9, and 9 mice for each group. (FIG. 16F). […] Data=mean±SEM. (FIG. 16G).
Statistical significance was determined by two-way ANOVA test with Tukey post-hoc analysis. Differences were considered significant when p<0.05. *p<0.05, **p<0.01, and ***p<0.001.

PPARγ = target: T1, PPARγ (Homo sapiens, UniProt P37231); conditions: cited from earlier work
T1 sequence (P37231 1-505): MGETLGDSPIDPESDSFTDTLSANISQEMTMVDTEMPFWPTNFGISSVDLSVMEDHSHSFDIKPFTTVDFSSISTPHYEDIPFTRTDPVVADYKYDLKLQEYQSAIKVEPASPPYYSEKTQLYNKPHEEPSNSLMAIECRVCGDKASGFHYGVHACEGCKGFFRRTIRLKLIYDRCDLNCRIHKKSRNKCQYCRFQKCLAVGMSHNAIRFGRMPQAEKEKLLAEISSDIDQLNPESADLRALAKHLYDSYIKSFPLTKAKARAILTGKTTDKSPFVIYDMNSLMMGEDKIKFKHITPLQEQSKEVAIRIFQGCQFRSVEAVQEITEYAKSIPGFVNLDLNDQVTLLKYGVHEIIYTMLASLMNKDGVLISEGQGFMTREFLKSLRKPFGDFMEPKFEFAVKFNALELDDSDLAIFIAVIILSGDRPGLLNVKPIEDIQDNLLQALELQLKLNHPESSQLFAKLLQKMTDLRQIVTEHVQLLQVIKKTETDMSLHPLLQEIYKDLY

[8] = dietary farnesol in rats; cited from earlier work
[9] = farnesol fed versus normal chow fed mice
[10] = farnesol diet from one week prior to injection

## CC(C)=CCC/C(C)=C/CC/C(C)=C/CO [farnesol, (2E,6E)-3,7,11-trimethyldodeca-2,6,10-trien-1-ol]
PGC-1α target genes
  PGC-1α, SOD1, and ATP5B mRNA levels: increased
  mRNA level of NRF-1: robustly increased
PGC-1α [1]
  level of PGC-1α: restores the level of PGC-1α
  level of parkin and PARIS: without affecting the level of parkin and PARIS
PGC-1α [1]; qRT-PCR
  mRNA levels of SOD2, TFAM, ATP5B, CYTC, and COX II: significantly increased
  reduction of mRNA of PGC-1α and NRF-1: rescued
[2]; 7 days
  increase of farnesol level in the brain versus control diet fed mice: 37%
[2]; brain
  concentration at 7 days: 155 ng/g
[2]; plasma, non-detectable on control diet
  concentration at 7 days: 113 ng/mL
PGC-1α [3]
  PGC-1α level increase, hippocampus (HIP): 1.6 fold
  PGC-1α level increase, olfactory bulb (OB): 2.7 fold
  PGC-1α level increase, substantia nigra (SN): 1.7 fold
  PGC-1α levels in cerebellum (CBM), brain stem (BS), striatum (STR), frontal cortex (CTX): No significant change
[4]; farnesol fed mice, SN, HIP, STR
  mRNA levels of SOD2, TFAM, UCP2, and CYTC: exclusively increased in SN, but not in the HIP and STR
[4]; [9]
  mRNA level of PGC-1α in HIP, SN and STR: significantly upregulated in the HIP and SN, but not in the STR
  mRNA levels of NRF-1, COX II, and COX IV: upregulated in both HIP and SN
PGC-1α and NRF-1
  PGC-1α and NRF-1 levels after knockdown of PARIS: fails to enhance the levels further
PPARα and PPARγ [5]
  activation of a PPAR responsive element: fails to activate
  levels of PPARα and PPARγ protein and mRNA and target genes ACOX1, CPT-1A, MCAD, LCAD: fails to influence
PPARα and PPARγ [6]; SN of farnesol fed mice
  mRNA levels of MCAD: increases
  mRNA levels of PPARγ and ACOX1: decreases
PPARα and PPARγ [6]; farnesol fed mice
  PGC-1α and NRF-1 levels: increase
  levels of PPARα and PPARγ: no alteration
PARIS
  distribution of PARIS in cytoplasmic, membrane, and soluble nuclear fractions: no change
PARIS; PARIS WT or C631S
  level of chromatin-bound PARIS: abolished the level of chromatin-bound PARIS WT but not PARIS C631S
[7]; AAV injected mice, farnesol diet
  levels of PARIS WT or PARIS C631S: did not affect
[7]; AAV-PARIS WT, farnesol diet
  amphetamine-induced rotation behavior: restoration of amphetamine-induced rotation behavior
[7]; [10]
  dopamine neuronal survival, AAV-PARIS C631S mice: no effect
  loss of dopamine neurons, AAV-PARIS WT mice: completely prevents the loss of dopamine neurons
[7]; farnesol fed mice, two weeks post-AAV injection
  farnesylated PARIS in AAV-PARIS WT compared to AAV-PARIS C631S injected mice: robustly observed
α-syn PFF-injected mice
  neuroprotective effect in α-syn PFF-injected mice: requires PARIS farnesylation in vivo
PPARγ
  activation of PPARγ in vitro: capable of activating
[8]
  level of serum triglycerides, cholesterol: lowers
